{"source": "paper PMC8667882", "about": "(Journal of Enzyme Inhibition and Medicinal Chemistry, 2021)", "tested_on": "CN (mouse brain extract)", "conditions": "peptide 25 nM, RII substrate"}
{"sequence": "GPHPVIVIT [pep1s]", "values": [{"measurement": "effect on CN activity at 25 nM", "value": "minimal effects on CN activity"}]}
